Patent US20040029736A1, “Promoting early establishment of potato crops by ethylene inhibitors” (Valent BioSciences Corporation, priority 2002, published 2004)
Where two headings read alike, the source gives them in different places.

Experiments:
[1] = test system: potato tubers; conditions: cited from earlier work; for release from dormancy and sprouting of potato tubers: literature (Alam 1994; Minato 1979; Rama 1981; Rylski 1974)
[2] = test system: potato microtubers; conditions: potato explants treated during initiation and growth phases of microtuber development; Suttle 1998; cited from earlier work
[3] = test system: potato tubers; assay: Example 5: sprout number and emergence from soil of MCP gas-treated potato tubers at 10° C. (Table 5); format: in vivo, Solanum tuberosum Linn; conditions: for number of emerged sprouts per potato tuber: 50 ppm MCP; for % Emergence / Sprouts/Tuber: 50 ppm MCP for 20 hr, in soil
Protocol: Potato tubers were treated with 50 ppm MCP in a closed plastic drum (30 gallon) for 20 hr and untreated potatoes served as the control. Each treatment consisted of 9 potato tubers. The treated potatoes were then planted in soil in plastic trays and placed in a ventilated chamber at 10° C. […]

[4] = test system: potato tubers; assay: Example 4: sprout number and length of potato tubers dipped in AVG or ethephon (Table 4); format: in vivo, Solanum tuberosum Linn; conditions: 1000 ppm ethephon dip; for Sprout length (cm) / Sprouts/potato: 20° C., in soil, dark chamber, 21 days after treatment
Protocol: Potato tubers were dipped in 2000 ppm AVG or 1000 ppm ethephon solution and water-dipped potatoes served as the control. Each treatment consisted of 9 potato tubers. The treated potatoes were then put in plastic trays and placed in dark ventilated chamber at 20° C. […]

[5] = Gold Rush, 15 days after treatment
[6] = Gold Rush, 18 days after treatment
[7] = Norkotah, 15 days after treatment
[8] = Norkotah, 18 days after treatment
[9] = Russet Burbank, 15 days after treatment
[10] = Russet Burbank, 18 days after treatment
[11] = Superior, 15 days after treatment
[12] = Superior, 18 days after treatment

## C=C [ethylene]
[1]
  release from dormancy and sprouting of potato tubers: enhances release from dormancy and increases sprouting
[1]; literature (Minato 1979; Rylski 1974)
  sprout elongation: inhibit sprout elongation

## C1=CC2C=CC1C2 [2,5-norbomadiene]
[2]
  sprouting of microtubers: caused precocious sprouting

## CC1=CC1 [MCP, 1-methylcyclopropene]
[3]; Russet Burbank, Norkotah, and Gold Rush
  number of emerged sprouts per potato tuber: increased
[3]; Superior
  number of emerged sprouts per potato tuber: not
[3]; [5]
  % Emergence: 44%
  Sprouts/Tuber: 0.8 B
[3]; [6]
  % Emergence: 56%
  Sprouts/Tuber: 1.3 B
[3]; [7]
  % Emergence: 78%
  Sprouts/Tuber: 1.7 B
[3]; [8]
  % Emergence: 78%
  Sprouts/Tuber: 2.0 B
[3]; [9]
  % Emergence: 100%
  Sprouts/Tuber: 2.4 B
[3]; [10]
  % Emergence: 100%
  Sprouts/Tuber: 2.9 B
[3]; [11]
  % Emergence: 89%
  Sprouts/Tuber: 1.2 A
[3]; [12]
  % Emergence: 89%
  Sprouts/Tuber: 1.6 A

## O=P(O)(O)CCCl [ethephon, 2-chloroethyl phosphonic acid]
[4]; Russet Burbank and Superior
  sprouting: stimulate sprouting
[4]; potato tubers
  sprout elongation: did not
[4]; Russet Burbank
  Sprout length (cm): 15.6 A cm
  Sprouts/potato: 10.8 B
[4]; Superior
  Sprout length (cm): 16.8 AB cm
  Sprouts/potato: 9.9 B
[1]
  release from dormancy and sprouting of potato tubers: enhances release from dormancy and increases sprouting

## O=[N+]([O-])[O-].[Ag+] [silver nitrate]
[2]
  sprouting of microtubers: caused precocious sprouting
